These results are taken from patent publication US20240294499A1, “TARGETED PROTEIN DEGRADATION USING BIFUNCTIONAL COMPOUNDS THAT BIND UBIQUITIN LIGASE AND TARGET MCL-1 PROTEIN” (Captor Therapeutics S.A., priority 2021, published 2024).

Assay [1] has as its target T1, [MCL-1]-[compound of formula (I)]-[CRBN/DDB1] complex (Homo sapiens, UniProt Q07820+Q96SW2). Description: AlphaLISA dose response ternary complex formation assay. The format is binding. As to conditions: read-out: AlphaLISA dose response Average pEC50 by molecule (converted). In a few lines:
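EC50 comes from dose–response of AlphaLISA luminescence (excitation 680, emission 615 nm), normalised between DMSO background and an internal positive control, with concentrations past the hook point dropped. Ternary complex formed by mixing bead-bound biotin-hMCL-1 and His-CRBN/DDB1 (protein solutions 40 and 200 nM) with compound in 2% DMSO, 30 min, 25 °C.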
(In Alpha technology, singlet oxygen from a donor bead excites a nearby acceptor bead.)

Assay [2] deals with T1, [MCL-1]-[compound of formula (I)]-[CRBN/DDB1] complex. Description: HTRF ternary complex assay. The format is binding. As to conditions: ternary complex formation; read-out: HTRF ternary complex Average pEC50 by molecule (converted). Here is the method: The effect of the bifunctional compounds of the invention on the formation of a ternary complex composed of [MCL-1]-[compound of formula (I)]-[CRBN/DDB1] was investigated.
Mix of protein solution were prepared: • 48 nM hMcl-1 and 105.6 nM CRBN was prepared in PPI Europium detection buffer with 2 mM DTT. • Acceptor and donor stock solutions were diluted 100 times in PPI Europium detection buffer. Equal volumes of both reagents were mixed. Finally giving 3 nM of Streptavidin-Eu cryptate […] and 6.67 nM of Anti-6× his-d2 […].
5 μl of protein mix was dispensed to all wells. The tested compounds in dose-response were dispensed onto a white 384-well low volume plate (Greiner, 784075). DMSO was backfilled to all wells, resulting in a final DMSO content of 0.5%. Wells containing only DMSO served as background. Next, 5 μl of solution with donor and acceptor was added to the wells.
The plate was sealed with transparent film and shaken using a VibroTurbulator for 60 see at level 3. The plate was then spun down shortly (10 s, 1000 rcf) and incubated at 25° C. for 180 min.
The read-out was performed with plate reader (Pherastar, BMG Labtech) in time resolved fluorescence mode. Filterset: TR 337 665 620.
The results were analyzed as follows: • 1) an average of fluorescence for background signal was calculated and used as a negative control; • 2) raw fluorescence values for tested compounds were normalized against negative controls; • 3) bell shape curve was fitted to a gaussian distribution using a non-linear least squares Gauss-Newton algorithm; • 4) EC50 and pEC50 values were determined.

Assay [3] relates to MV-4-11 cells. Description: Cell viability assay (CellTiter-Glo), MV-4-11. Format: cell-based. As to conditions: Homo sapiens, MV4-11, 24 hours incubation, 1% FBS, read-out: Average pIC50 by molecule MV-4-11 (converted). In a few lines: (§1)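 Luminescent ATP readout (CellTiter-Glo) at 24 hours measured viability, expressed relative to DMSO-treated wells. Compound was added directly to the medium as a 9–12-point threefold series starting at 30 uM, at 0.5% final DMSO. The medium contained FBS reduced to 1%.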
A general note: Cellular ATP, detected with luciferase, serves as a proxy for viable cell number.

The test system of assay [4] is ARH-77 cells. As to the kind of experiment: Cell viability assay (CellTiter-Glo), ARH-77. The format is cell-based. To be noted: Homo sapiens, ARH-77, 24 hours incubation, 1% FBS, read-out: Average pIC50 by molecule ARH-77 (converted). In short, it runs like this: as §1

T1 sequence (Q07820 whole entry): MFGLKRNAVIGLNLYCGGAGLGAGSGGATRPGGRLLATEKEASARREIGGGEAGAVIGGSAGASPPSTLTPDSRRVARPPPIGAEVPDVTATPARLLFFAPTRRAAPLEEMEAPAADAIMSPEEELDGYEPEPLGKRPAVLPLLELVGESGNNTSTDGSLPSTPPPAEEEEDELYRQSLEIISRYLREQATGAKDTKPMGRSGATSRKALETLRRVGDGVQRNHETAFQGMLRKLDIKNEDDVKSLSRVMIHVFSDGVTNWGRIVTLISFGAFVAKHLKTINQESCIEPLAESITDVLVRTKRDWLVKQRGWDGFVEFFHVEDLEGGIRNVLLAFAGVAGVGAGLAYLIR
T1 sequence (Q96SW2 whole entry): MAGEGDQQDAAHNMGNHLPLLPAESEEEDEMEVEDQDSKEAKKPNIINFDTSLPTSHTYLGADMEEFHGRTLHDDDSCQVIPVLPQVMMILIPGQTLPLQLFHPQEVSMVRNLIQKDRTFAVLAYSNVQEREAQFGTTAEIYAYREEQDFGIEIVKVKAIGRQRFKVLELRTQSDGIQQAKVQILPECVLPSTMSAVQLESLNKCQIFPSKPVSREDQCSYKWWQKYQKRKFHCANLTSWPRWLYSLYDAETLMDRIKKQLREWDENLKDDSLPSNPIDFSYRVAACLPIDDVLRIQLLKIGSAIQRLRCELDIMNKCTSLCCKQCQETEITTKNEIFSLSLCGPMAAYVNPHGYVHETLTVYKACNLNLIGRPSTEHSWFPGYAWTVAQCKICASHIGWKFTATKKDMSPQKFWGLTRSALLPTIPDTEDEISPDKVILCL
T1 sequence (Q16531 whole entry partner): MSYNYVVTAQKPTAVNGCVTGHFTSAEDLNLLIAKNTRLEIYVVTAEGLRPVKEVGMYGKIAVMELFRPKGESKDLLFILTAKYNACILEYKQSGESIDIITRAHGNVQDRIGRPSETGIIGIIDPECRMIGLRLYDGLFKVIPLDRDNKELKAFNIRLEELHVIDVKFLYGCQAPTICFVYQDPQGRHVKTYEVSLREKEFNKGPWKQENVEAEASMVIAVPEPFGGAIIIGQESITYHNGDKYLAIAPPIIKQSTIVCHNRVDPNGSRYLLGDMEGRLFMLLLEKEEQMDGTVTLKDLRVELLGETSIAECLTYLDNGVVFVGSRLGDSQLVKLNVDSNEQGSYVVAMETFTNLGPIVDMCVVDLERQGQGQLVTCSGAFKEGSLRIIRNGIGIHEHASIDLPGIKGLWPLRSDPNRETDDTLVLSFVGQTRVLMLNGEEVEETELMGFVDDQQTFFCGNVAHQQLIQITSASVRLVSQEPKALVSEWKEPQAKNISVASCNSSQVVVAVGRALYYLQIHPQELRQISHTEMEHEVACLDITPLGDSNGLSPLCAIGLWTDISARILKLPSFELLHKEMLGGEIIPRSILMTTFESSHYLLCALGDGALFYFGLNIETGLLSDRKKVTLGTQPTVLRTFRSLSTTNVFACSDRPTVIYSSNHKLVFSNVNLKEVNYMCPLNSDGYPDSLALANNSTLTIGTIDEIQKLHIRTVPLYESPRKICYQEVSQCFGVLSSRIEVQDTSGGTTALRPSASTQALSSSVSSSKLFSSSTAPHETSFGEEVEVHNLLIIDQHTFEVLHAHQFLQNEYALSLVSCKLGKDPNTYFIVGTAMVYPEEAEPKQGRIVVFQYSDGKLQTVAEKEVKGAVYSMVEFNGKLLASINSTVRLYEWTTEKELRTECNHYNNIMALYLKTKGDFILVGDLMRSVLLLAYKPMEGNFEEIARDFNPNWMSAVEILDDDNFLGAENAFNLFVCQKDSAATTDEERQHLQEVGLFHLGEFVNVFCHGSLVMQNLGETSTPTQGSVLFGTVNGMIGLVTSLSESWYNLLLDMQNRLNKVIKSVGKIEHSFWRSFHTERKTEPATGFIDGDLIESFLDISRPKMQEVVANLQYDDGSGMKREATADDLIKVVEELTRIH

For `Cc1nn(C)c(C)c1-c1c(Cl)ccc2c(CCCOc3cccc4ccccc34)c(C(=O)O)n(CCN3CCC(NC(=O)COc4cccc5c4CN(C4CCC(=O)NC4=O)C5=O)CC3)c12` (stereo not drawn) [Compound 221, 6-chloro-1-{2-[4-(2-{[2-(2,6-dioxopiperidin-3-yl)-1-oxo-2,3-dihydro-1H-isoindol-4-yl]oxy}acetamido)piperidin-1-yl]ethyl}-3-[3-(naphthalen-1-yloxy)propyl]-7-(1,3,5-trimethyl-1H-pyrazol-4-yl)-1H-indole-2-carboxylic acid], the EC50 in assay [1] and in assay [2] was less than 100 nM in each case. Moreover, the IC50 was no more than 10000 nM in assay [3] and greater than 31600 nM in assay [4].
With `Cc1nn(C)c(C)c1-c1c(Cl)ccc2c(CCCOc3cccc4ccc(F)cc34)c(C(=O)O)n(CCN3CCN(C(=O)COc4cccc5c4CN(C4CCC(=O)NC4=O)C5=O)CC3)c12` (stereo not drawn) [Compound 354, 6-Chloro-1-(2-(4-(2-((2-(2,6-dioxopiperidin-3-yl)-1-oxoisoindolin-4-yl)oxy)acetyl)piperazin-1-yl)ethyl)-3-(3-((7-fluoronaphthalen-1-yl)oxy)propyl)-7-(1,3,5-trimethyl-1H-pyrazol-4-yl)-1H-indole-2-carboxylic acid], the EC50 in assay [1] and in assay [2] was less than 100 nM in each case. The results for the IC50 in assay [3] and in assay [4] were no more than 100 nM and greater than 10000 nM, respectively.
With `Cc1nn(C)c(C)c1-c1c(Cl)ccc2c(CCCOc3cccc4cc(F)ccc34)c(C(=O)O)n(CCN(C)CCN(C)C(=O)COc3cccc4c3CN(C3CCC(=O)NC3=O)C4=O)c12` (stereo not drawn) [Compound 327, 6-Chloro-1-(2-((2-(2-((2-(2,6-dioxopiperidin-3-yl)-1-oxoisoindolin-4-yl)oxy)-N-methylacetamido)ethyl)(methyl)amino)ethyl)-3-(3-((6-fluoronaphthalen-1-yl)oxy)propyl)-7-(1,3,5-trimethyl-1H-pyrazol-4-yl)-1H-indole-2-carboxylic acid], the EC50 in assay [1] is less than 100 nM; in assay [2], less than 10 nM. The IC50 was no more than 100 nM in assay [3] and greater than 10000 nM in assay [4].
In the same order, the values of `Cc1nn(C)c(C)c1-c1c(Cl)ccc2c(CCCOc3cccc4cc(F)ccc34)c(C(=O)O)n(CCN3CCN(CCOc4cccc5c4C(=O)N(C4CCC(=O)NC4=O)C5=O)CC3)c12` (stereo not drawn) [Compound 321, 6-Chloro-1-(2-(4-(2-((2-(2,6-dioxopiperidin-3-yl)-1,3-dioxoisoindolin-4-yl)oxy)ethyl)piperazin-1-yl)ethyl)-3-(3-((6-fluoronaphthalen-1-yl)oxy)propyl)-7-(1,3,5-trimethyl-1H-pyrazol-4-yl)-1H-indole-2-carboxylic acid] are less than 10 nM, less than 100 nM, no more than 316 nM and greater than 10000 nM.
On to `Cc1nn(C)c(C)c1-c1c(Cl)ccc2c(CCCOc3cccc4cc(F)ccc34)c(C(=O)O)n(CCOCCCn3c(C)nc4c(C(=O)NC5CCC(=O)NC5=O)cccc43)c12` (stereo not drawn) [Compound 282, 6-Chloro-1-[2-(3-{4-[(2,6-dioxopiperidin-3-yl)carbamoyl]-2-methyl-1H-1,3-benzodiazol-1-yl}propoxy)ethyl]-3-{3-[(6-fluoronaphthalen-1-yl)oxy]propyl}-7-(1,3,5-trimethyl-1H-pyrazol-4-yl)-1H-indole-2-carboxylic acid], for which, in assay [2], the EC50 was less than 100 nM. In addition, the IC50 in assay [3] was no more than 31.6 nM; in assay [4], greater than 3160 nM.
In the case of `Cc1nn(C)c(C)c1-c1c(Cl)ccc2c(CCCOc3cccc4cc(F)ccc34)c(C(=O)O)n(CCCNC(=O)COc3cccc4c3CN(C3CCC(=O)NC3=O)C4=O)c12` (stereo not drawn) [Compound 330, 6-Chloro-1-[3-(2-{[2-(2,6-dioxopiperidin-3-yl)-1-oxo-2,3-dihydro-1H-isoindol-4-yl]oxy}acetamido)propyl]-3-{3-[(6-fluoronaphthalen-1-yl)oxy]propyl}-7-(1,3,5-trimethyl-1H-pyrazol-4-yl)-1H-indole-2-carboxylic acid], the EC50 in assay [1] and in assay [2] was less than 100 nM each time. Moreover, the IC50 is no more than 100 nM in assay [3] and greater than 10000 nM in assay [4].
For the compound `Cc1nn(C)c(C)c1-c1c(Cl)ccc2c(CCCOc3cccc4cc(F)ccc34)c(C(=O)O)n(CCN3CCN(CC4CN(c5cc6c(cc5F)C(=O)N(C5CCC(=O)NC5=O)C6=O)C4)CC3)c12` (stereo not drawn) [Compound 334, 6-Chloro-1-(2-(4-((1-(2-(2,6-dioxopiperidin-3-yl)-6-fluoro-1,3-dioxoisoindolin-5-yl)azetidin-3-yl)methyl)piperazin-1-yl)ethyl)-3-(3-((6-fluoronaphthalen-1-yl)oxy)propyl)-7-(1,3,5-trimethyl-1H-pyrazol-4-yl)-1H-indole-2-carboxylic acid], in assay [2], the EC50 is less than 10 nM. Besides, the IC50 in assay [3] was no more than 100 nM; in assay [4], greater than 3160 nM.
For the compound `Cc1nn(C)c(C)c1-c1c(Cl)ccc2c(CCCOc3cccc4cc(F)ccc34)c(C(=O)O)n(CCCOCCn3c(C)nc4c(C(=O)NC5CCC(=O)NC5=O)cccc43)c12` (stereo not drawn) [Compound 280, 6-Chloro-1-[3-(2-{4-[(2,6-dioxopiperidin-3-yl)carbamoyl]-2-methyl-1H-1,3-benzodiazol-1-yl}ethoxy)propyl]-3-{3-[(6-fluoronaphthalen-1-yl)oxy]propyl}-7-(1,3,5-trimethyl-1H-pyrazol-4-yl)-1H-indole-2-carboxylic acid], the EC50 in assay [1] and in assay [2] was less than 10 nM each time. Also, the IC50 was no more than 100 nM in assay [3] and greater than 3160 nM in assay [4].
Consider `Cc1nn(C)c(C)c1-c1c(Cl)ccc2c(CCCOc3cccc4cc(F)ccc34)c(C(=O)O)n(CCC3CN(C(=O)COc4cccc5c4CN(C4CCC(=O)NC4=O)C5=O)C3)c12` (stereo not drawn) [Compound 299, 6-Chloro-1-(2-(1-(2-((2-(2,6-dioxopiperidin-3-yl)-1-oxoisoindolin-4-yl)oxy)acetyl)azetidin-3-yl)ethyl)-3-(3-((6-fluoronaphthalen-1-yl)oxy)propyl)-7-(1,3,5-trimethyl-1H-pyrazol-4-yl)-1H-indole-2-carboxylic acid], for which the EC50 in assay [2] was less than 100 nM. Also, the IC50 in assay [3] is no more than 100 nM; in assay [4], greater than 10000 nM.
The matching figures for `Cc1nn(C)c(C)c1-c1c(Cl)ccc2c(CCCOc3cccc4cc(F)ccc34)c(C(=O)O)n(CCN3CC(N4CCN(c5cc6c(cc5F)C(=O)N(C5CCC(=O)NC5=O)C6=O)CC4)C3)c12` (stereo not drawn) [Compound 337, 6-Chloro-1-(2-(3-(4-(2-(2,6-dioxopiperidin-3-yl)-6-fluoro-1,3-dioxoisoindolin-5-yl)piperazin-1-yl)azetidin-1-yl)ethyl)-3-(3-((6-fluoronaphthalen-1-yl)oxy)propyl)-7-(1,3,5-trimethyl-1H-pyrazol-4-yl)-1H-indole-2-carboxylic acid]: less than 10 nM, no more than 316 nM and greater than 10000 nM.
In the same order, the values of `Cc1nc2cc(NCC(=O)N3CCN(CCn4c(C(=O)O)c(CCCOc5cccc6cc(F)ccc56)c5ccc(Cl)c(-c6c(C)nn(C)c6C)c54)CC3)ccc2cc1C1CCC(=O)NC1=O` (stereo not drawn) [Compound 285, 6-Chloro-1-(2-(4-((3-(2,6-dioxopiperidin-3-yl)-2-methylquinolin-7-yl)glycyl)piperazin-1-yl)ethyl)-3-(3-((6-fluoronaphthalen-1-yl)oxy)propyl)-7-(1,3,5-trimethyl-1H-pyrazol-4-yl)-1H-indole-2-carboxylic acid] are less than 10 nM, no more than 100 nM and greater than 10000 nM.
`Cc1nn(C)c(C)c1-c1c(Cl)ccc2c(CCCOc3cccc4cc(F)ccc34)c(C(=O)O)n(CCC3CCC(NC(=O)COc4cccc5c4CN(C4CCC(=O)NC4=O)C5=O)CN3C)c12` (stereo not drawn) [Compound 306, 6-Chloro-1-{2-[5-(2-{[2-(2,6-dioxopiperidin-3-yl)-1-oxo-2,3-dihydro-1H-isoindol-4-yl]oxy}acetamido)-1-methylpiperidin-2-yl]ethyl}-3-{3-[(6-fluoronaphthalen-1-yl)oxy]propyl}-7-(1,3,5-trimethyl-1H-pyrazol-4-yl)-1H-indole-2-carboxylic acid]: the EC50 in assay [2] is less than 10 nM. For the same compound, the IC50 is no more than 100 nM in assay [3] and greater than 10000 nM in assay [4].
